# From patent US10323041B2, “Bicyclic derivatives, a process for their preparation and pharmaceutical compositions containing them” (LES LABORATOIRES SERVIER, priority 2015, dated 2019)
# Read-outs that look alike come from different tables or passages of the source.
# Legend:
# Mcl-1 protein = Mcl-1 protein (Homo sapiens, UniProt Q07820); assay: Inhibition of Mcl-1 by the fluorescence polarisation technique; format: binding; settings: for IC50: read-out: IC50 (M) Mcl-1 FP
# Protocol: The relative binding potency of each compound was determined via fluorescence Polarisation (FP). The method utilised a Fluorescein labelled ligand Fluorescein-βAla-Ahx-[A-REIGAQLRRMADDLNAQY (SEQ ID NO: 1)]-OH; mw 2,765) which binds to the Mcl-1 protein (such that corresponds to the UniProtKB® primary accession number: Q07820) leading to an increased anisotropy measured in milli-polarisation (mP) units using a reader. The addition of a compound which binds competitively to the same site as the ligand will result in a greater proportion of unbound ligand in the system indicated by a decrease in mP units.
# Method 1: An 11 point serial dilution of each compound was prepared in DMSO and 2 μl transferred into flat bottomed, low binding, 384-well plate (final DMSO concentration 5%). 38 μl of buffer (10 mM 4-(2-hydroxyethyl)-1-piperazineethanesulfonic acid [HEPES], 150 mM NaCl, 0.05% Tween 20, pH 7.4), containing the Fluorescein labelled ligand (final concentration 1 nM) and Mcl-1 protein (final concentration 5 nM) was then added.
# (§1) Assay plates were incubated ˜2 hours at room temperature before FP was measured on a […] Synergy2 reader (Ex. 528 nm, Em. 640 nm, Cut off 510 nm) and mP units calculated. The binding of increasing doses of test compound was expressed as a percentage reduction in mP compared to a window established between ‘5% DMSO only’ and ‘100% inhibition’ controls. 11-point dose response curves were plotted with XL-Fit software using a 4-Parameter Logistic Model (Sigmoidal Dose-Response Model) and the inhibitory concentrations that gave a 50% reduction in mP (IC50) were determined. Results obtained using Method 1 are presented in Table 1 below; IC50 of Mcl-1 inhibition obtained using Method 1 are not underlined.
# Method 2: An 11 point serial dilution of each compound was prepared in DMSO and 2 μl transferred into flat bottomed, low binding, 384-well plate (final DMSO concentration 5%). 38 μl of buffer (20 mM Na2HPO4, 1 mM EDTA, 50 mM NaCl, pH 7.4), containing the Fluorescein labelled ligand (final concentration 10 nM) and Mcl-1 protein (final concentration 10 nM) was then added.
# as §1, with “inhibition’ controls (50 μM unlabelled ligand).” for “inhibition’ controls.”, “Method 2” for “Method 1”, “are” for “are not”
# [1] = system: H929 multiple myeloma tumour line; assay: In vitro cytotoxicity, Microculture Tetrazolium Assay on H929 cells; format: cell-based; settings: cell viability, read-out: IC50 (M) MTT H929
# Protocol: The cytotoxicity studies were carried out on the H929 multiple myeloma tumour line.
# The cells are distributed onto microplates and exposed to the test compounds for 48 hours. The cell viability is then quantified by a colorimetric assay, the Microculture Tetrazolium Assay (Cancer Res., 1987, 47, 939-942).
# [2] = Method 1 (not underlined) or Method 2 (underlined), underlining not visible, first value where cell prints two
# [3] = Homo sapiens, NCI-H929, exposed for 48 hours
# Chain of Mcl-1 protein (Q07820 whole entry): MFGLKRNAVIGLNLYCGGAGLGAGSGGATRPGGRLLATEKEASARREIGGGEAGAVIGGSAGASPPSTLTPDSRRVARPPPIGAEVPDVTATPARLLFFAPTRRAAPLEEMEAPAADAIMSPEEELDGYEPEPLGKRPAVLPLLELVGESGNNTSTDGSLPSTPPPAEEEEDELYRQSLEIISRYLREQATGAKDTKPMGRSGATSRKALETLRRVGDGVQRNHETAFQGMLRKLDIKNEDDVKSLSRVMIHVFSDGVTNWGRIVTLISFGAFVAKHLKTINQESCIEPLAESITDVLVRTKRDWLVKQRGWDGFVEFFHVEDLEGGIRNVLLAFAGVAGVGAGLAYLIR
IC50 (Mcl-1 protein; [2]),Structure (SMILES),"IC50 [1, 3]",other results
4.1e-08 M,"COc1ccccc1-c1nccc(COc2ccccc2CC(Oc2nccc3nc(-c4ccc(F)cc4)c(-c4ccc(OCCN5CCN(C)CC5)c(Cl)c4C)n23)C(=O)O)n1 (centres unmarked) [Example 97b, 2-{[(3Ra)-3-{3-chloro-2-methyl-4-[2-(4-methylpiperazin-1-yl)ethoxy]phenyl}-2-(4-fluorophenyl)imidazo[1,2-c]pyrimidin-5-yl]oxy}-3-(2-{[2-(2-methoxyphenyl)pyrimidin-4-yl]methoxy}phenyl)propanoic acid]",4.59e-07 M,–
1.34e-07 M,"CCOC(=O)OC(C)OC(=O)C(Cc1ccccc1OCc1ccnc(-c2ccccc2OC)n1)Oc1ccnc2sc(-c3ccc(F)cc3)c(-c3ccc(OCCN4CCN(C)CC4)c(Cl)c3C)c12 [Example 76, 1-[(ethoxycarbonyl)oxy]ethyl (2R)-2-{[(3Sa)-3-{3-chloro-2-methyl-4-[2-(4-methylpiperazin-1-yl)ethoxy]phenyl}-2-(4-fluorophenyl)thieno[2,3-b]pyridin-4-yl]oxy}-3-(2-{[2-(2-methoxyphenyl)pyrimidin-4-yl]methoxy}phenyl)propanoate]",1.01e-08 M,–
1.7e-08 M,"COc1ccccc1C[C@@H](Oc1ncnc2oc(-c3ccc(F)cc3)c(-c3ccc(OCCN4CCN(C)CC4)c(Cl)c3C)c12)C(=O)O [Example 3, (2R)-2-{[5-{3-chloro-2-methyl-4-[2-(4-methylpiperazin-1-yl)ethoxy]phenyl}-6-(4-fluorophenyl)furo[2,3-d]pyrimidin-4-yl]oxy}-3-(2-methoxyphenyl) propanoic acid]",3.64e-07 M,–
–,"COc1ccccc1-c1nccc(COc2ccccc2CC(Oc2nccc3nc(-c4ccc(F)cc4)c(-c4ccc(OCCN5CCN(C)CC5)c(Cl)c4C)n23)C(=O)O)n1 (centres unmarked) [Example 97a, 2-{[(3Sa)-3-{3-chloro-2-methyl-4-[2-(4-methylpiperazin-1-yl)ethoxy]phenyl}-2-(4-fluorophenyl)imidazo[1,2-c]pyrimidin-5-yl]oxy}-3-(2-{[2-(2-methoxyphenyl)pyrimidin-4-yl]methoxy}phenyl)propanoic acid]",–,"percentage fluorescence polarization inhibition (Mcl-1 protein; @ 10 μM test compound, partial inhibitors): 55% @ 10 μM; IC50 ([1]; exposed for 48 hours): 1.16e-05 M"
8.6e-08 M,"COc1ccccc1-c1nccc(COc2ccccc2C[C@@H](Nc2ncnc3oc(-c4ccc(F)cc4)c(-c4ccc(OCCN5CCN(C)CC5)c(Cl)c4C)c23)C(=O)O)n1 [Example 9, N-[(5Ra)-5-{3-chloro-2-methyl-4-[2-(4-methylpiperazin-1-yl)ethoxy]phenyl}-6-(4-fluorophenyl)furo[2,3-d]pyrimidin-4-yl]-2-{[2-(2-methoxyphenyl)pyrimidin-4-yl]methoxy}-D-phenylalanine]",–,IC50 ([1]; exposed for 48 hours): 6.89e-08 M
1.1e-07 M,"COc1ccccc1CC(Nc1ncnc2oc(-c3ccc(F)cc3)c(-c3ccc(OCCN4CCN(C)CC4)c(Cl)c3C)c12)C(=O)O [Example 7, N-[(5Sa)-5-{3-chloro-2-methyl-4-[2-(4-methylpiperazin-1-yl)ethoxy]phenyl}-6-(4-fluorophenyl)furo[2,3-d]pyrimidin-4-yl]-2-methoxy-D-phenylalanine]",7.57e-07 M,–
–,"COc1ccccc1-c1nccc(COc2ccccc2C[C@@H](Nc2ccnc3nc(-c4ccc(F)cc4)c(-c4ccc(OCCN5CCN(C)CC5)c(Cl)c4C)n23)C(=O)O)n1 [Example 102, N-[3-{3-chloro-2-methyl-4-[2-(4-methylpiperazin-1-yl)ethoxy]phenyl}-2-(4-fluorophenyl)imidazo[1,2-a]pyrimidin-5-yl]-2-{[2-(2-methoxyphenyl)pyrimidin-4-yl]methoxy}-D-phenylalanine]",> 3e-05 M,IC50 (M) Mcl-1 FP (Mcl-1 protein; [2]): no curve
5.61e-07 M,"COc1ccccc1-c1nccc(COc2ccccc2CC(Oc2ccnc3sc(-c4ccc(F)cc4)c(-c4ccc(OCCN5CCN(C)CC5)c(Cl)c4C)c23)C(=O)OC(C)OC(=O)N(C)C)n1 [Example 75, 1-[(dimethylcarbamoyl)oxy]ethyl (2R)-2-{[(3Sa)-3-{3-chloro-2-methyl-4-[2-(4-methylpiperazin-1-yl)ethoxy]phenyl}-2-(4-fluorophenyl)thieno[2,3-b]pyridin-4-yl]oxy}-3-(2-{[2-(2-methoxyphenyl)pyrimidin-4-yl]methoxy}phenyl)propanoate]",7.55e-08 M,–
2.9e-08 M,"Cc1c(-c2c(-c3ccc(F)cc3)oc3ncnc(O[C@H](Cc4ccccc4OCc4cnccn4)C(=O)O)c23)ccc(OCCN2CCN(C)CC2)c1Cl [Example 4, (2R)-2-{[5-{3-chloro-2-methyl-4-[2-(4-methylpiperazin-1-yl)ethoxy]phenyl}-6-(4-fluorophenyl)furo[2,3-d]pyrimidin-4-yl]oxy}-3-[2-(pyrazin-2-ylmethoxy)phenyl]propanoic acid]",3.29e-07 M,–
3.6e-08 M,"COc1ccccc1CC(Oc1cccc2cc(-c3ccco3)n(-c3ccc(OCCN4CCN(C)CC4)c(Cl)c3C)c12)C(=O)O [Example 59, (2R)-2-{[(1Sa)-1-{3-chloro-2-methyl-4-[2-(4-methylpiperazin-1-yl)ethoxy]phenyl}-2-(furan-2-yl)-1H-indol-7-yl]oxy}-3-(2-methoxyphenyl)propanoic acid]",1.24e-06 M,–
7.4e-09 M,"COc1ccccc1-c1nccc(COc2ccccc2CC(Oc2cccc3oc(-c4ccc(F)cc4)c(-c4ccc(OCCN5CCN(C)CC5)c(Cl)c4C)c23)C(=O)O)n1 (single isomer, unassigned) [Example 64]",4.71e-08 M,–
1.8e-05 M,"Cn1cc(-c2cccc3ccccc23)c2c(N[C@H](Cc3ccccc3)C(=O)O)ncnc21 [Example 10, N-[7-methyl-5-(naphthalen-1-yl)-7H-pyrrolo[2,3-d]pyrimidin-4-yl]-D-phenylalanine]",–,–
1.8e-06 M,"Cc1c(-c2cn(Cc3ccccc3)c3ncnc(O[C@H](Cc4ccccc4)C(=O)O)c23)ccc(OCCN2CCN(C)CC2)c1Cl [Example 45, (2R)-2-[(7-benzyl-5-{3-chloro-2-methyl-4-[2-(4-methylpiperazin-1-yl)ethoxy]phenyl}-7H-pyrrolo[2,3-d]pyrimidin-4-yl)oxy]-3-phenylpropanoic acid]",–,–
2.5e-06 M,"C=CCn1c(Br)c(-c2cccc(Cl)c2C)c2c(NC(Cc3ccccc3)C(=O)O)ncnc21 [Example 44, N-[6-bromo-(5Sa)-5-(3-chloro-2-methylphenyl)-7-(prop-2-en-1-yl)-7H-pyrrolo[2,3-d]pyrimidin-4-yl]-D-phenylalanine]",–,–
–,"Cc1c(Cl)cccc1-c1c2n(c3ncnc(N[C@H](Cc4ccccc4)C(=O)O)c13)CCC2 [Example 46, N-[5-(3-chloro-2-methylphenyl)-7,8-dihydro-6H-pyrimido[5,4-b]pyrrolizin-4-yl]-D-phenylalanine]",–,"inhibition at 50 µM (Mcl-1 protein; @ 50 μM test compound, partial inhibitors, read-out: percentage fluorescence polarization inhibition): 71%"
3.5e-06 M,"CCc1c(-c2cccc(Cl)c2C)c2c(NC(Cc3ccccc3)C(=O)O)ncnc2n1Cc1cccc2ccccc12 (single isomer, unassigned) [Example 32, N-[(5Ra)-5-(3-chloro-2-methylphenyl)-6-ethyl-7-(naphthalen-1-ylmethyl)-7H-pyrrolo[2,3-d]pyrimidin-4-yl]-D-phenylalanine]",–,–
–,"Cc1c(Cl)cccc1-c1csc2ccnc(N[C@H](Cc3ccccc3)C(=O)O)c12 [Example 70, N-[3-(3-chloro-2-methylphenyl)thieno[3,2-c]pyridin-4-yl]-D-phenylalanine]",–,"inhibition at 10 µM (Mcl-1 protein; @ 10 μM test compound, partial inhibitors, read-out: percentage fluorescence polarization inhibition): 13.6%"
6.8e-06 M,"CCc1c(-c2cccc(Cl)c2C)c2c(NC(Cc3ccccc3)C(=O)O)ncnc2n1CC1CC1 [Example 23, N-[(5Sa)-5-(3-chloro-2-methylphenyl)-7-(cyclopropylmethyl)-6-ethyl-7H-pyrrolo[2,3-d]pyrimidin-4-yl]-D-phenylalanine]",–,–
